Where no end group is shown, it is not given here.
Test system: GH4C1 cells
Assay: Rat pituitary assay for somatostatin receptor antagonists (cAMP content of GH4C1 cells)
Format: cell-based
Source text: This assay is designed to quantitate the activity of antagonists of somatostatin that interact directly at the somatostatin receptor. The assay facilitates discovery of agents which increase growth hormone secretion by modulating the inhibitory effects of somatostatin. As aforementioned, somatostatin (also abbreviated SRIF) inhibits GH secretion in the anterior pituitary by binding to a high affinity membrane-bound (and G-protein coupled) receptor which is coupled negatively to adenyl cyclase, thereby reducing intracellular levels of cAMP that would otherwise facilitate, for example, secretion/release of GH from cytoplasmic granules. […] The screen is designed to quantitate the ability of test agents to reverse SRIF's inhibition of the elevated intracellular cAMP levels produced by VIP. […]
In particular, cyclic AMP (cAMP) content of the pituitary cell line GH4C1 was used to differentiate somatostatin agonists from antagonists. […] This afforded a convenient way to conduct a homogenous immunoradiometric assay of cAMP content in cells lysed in situ, following incubation of the cells with test compound. cAMP content in the GH4C1 cells was determined according to the manufacturer's instructions, by comparison with standards at concentrations from 10 to 1,000 nM cAMP. […]

| Compound | effect on VIP-elevated cAMP content of the GH4C1 cells (10 nM somatostatin 14 in the presence of 100 nM VIP) | effect on cAMP content of the GH4C1 cells (100 nM VIP) |
| --- | --- | --- |
| C[C@H](N)C(=O)NCC(=O)N[C@H]1CSSC[C@@H](C(=O)O)NC(=O)[C@H](CO)NC(=O)[C@H]([C@@H](C)O)NC(=O)[C@H](Cc2ccccc2)NC(=O)[C@H]([C@@H](C)O)NC(=O)[C@H](CCCCN)NC(=O)[C@H](Cc2c[nH]c3ccccc23)NC(=O)[C@H](Cc2ccccc2)NC(=O)[C@H](Cc2ccccc2)NC(=O)[C@H](CC(N)=O)NC(=O)[C@H](CCCCN)NC1=O [somatostatin, somatostatin 14] | partial inhibition | – |
| vasoactive intestinal peptide (HSDAVFTDNYTRLRKQMAVKKYLNSILN; ends and bridges not checked; UniProt P01282 125-152, looked up) [VIP] | – | increased cAMP content |
